The target of test [1] is T1, CHIKV Mac (Chikungunya virus, UniProt Q8JUX6). In words: biochemical. It is filed as binding.
Test [2] concerns the target T2, SARS-CoV-2 Mac1 (Severe acute respiratory syndrome coronavirus 2, UniProt P0DTD1). Kind of test: biochemical. Type of test: binding. The settings on record: for koff: read-out: kdis.
Test [3] concerns the target T2, SARS-CoV-2 Mac1. In words: biochemical. Type of test: binding. The settings on record: IC50.
Test [4] deals with T3, MERS-CoV Mac1 (Middle East respiratory syndrome-related coronavirus, UniProt K9N7C7). In words: biochemical. Type of test: binding.
T3 sequence (K9N7C7 1110-1276 limits assumed): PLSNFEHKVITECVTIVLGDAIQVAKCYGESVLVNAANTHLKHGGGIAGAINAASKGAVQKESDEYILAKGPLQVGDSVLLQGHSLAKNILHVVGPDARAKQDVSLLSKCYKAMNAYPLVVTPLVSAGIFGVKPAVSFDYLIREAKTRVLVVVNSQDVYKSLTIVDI
Test [5] has as its target T1, CHIKV Mac. Kind of test: biochemical. It is filed as binding. The following applies: for koff: read-out: kdis.
For test [6], the target named is T3, MERS-CoV Mac1. Kind of test: biochemical. The following applies: for koff: read-out: kdis. Type of test: binding.
Test [7] concerns the target T4, VEEV Mac (Venezuelan equine encephalitis virus, UniProt P27282). Kind of test: biochemical. It is filed as binding. The following applies: for koff: read-out: kdis.
Test [8] concerns the target T2, SARS-CoV-2 Mac1. The following applies: cited from earlier work.
Test [9] addresses T2, SARS-CoV-2 Mac1. The following applies: cited from earlier work. The source holds these as a separate data set.
Test [10] addresses T2, SARS-CoV-2 Mac1. The settings on record: cited from earlier work. The source holds these as a separate data set.
Test [11] concerns the target T3, MERS-CoV Mac1. Kind of test: biochemical. Type of test: binding. This is another data set of the same source.
The target in test [12] is T2, SARS-CoV-2 Mac1. Kind of test: biochemical. It is filed as binding.
For test [13], the target named is T1, CHIKV Mac. In words: biochemical. Type of test: binding. This is another data set of the same source.
Test [14] has as its target T4, VEEV Mac. In words: biochemical. Type of test: binding.
Test [15] deals with T4, VEEV Mac. Kind of test: biochemical. It is filed as binding. The source holds these as a separate data set.

“And” between values parts separate entries of the source, which are not always exact repeats. Equal values may be shown once. Read-outs that look alike come from different tables or passages of the source.

T1 sequence (Q8JUX6 1334-1493 limits assumed): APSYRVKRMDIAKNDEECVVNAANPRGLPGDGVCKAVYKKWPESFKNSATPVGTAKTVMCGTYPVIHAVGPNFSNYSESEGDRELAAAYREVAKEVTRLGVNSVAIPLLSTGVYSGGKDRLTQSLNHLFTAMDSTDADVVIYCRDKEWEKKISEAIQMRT
T4 sequence (P27282 1330-1489 limits assumed): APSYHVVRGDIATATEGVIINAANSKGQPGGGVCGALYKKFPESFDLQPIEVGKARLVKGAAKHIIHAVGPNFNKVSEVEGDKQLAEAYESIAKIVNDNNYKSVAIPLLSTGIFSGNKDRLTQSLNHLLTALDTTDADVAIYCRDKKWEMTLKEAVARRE

On to `N#C[C@@]1(c2ccc3c(N)ncnn23)O[C@H](COP(=O)(O)OP(=O)(O)OC[C@H]2O[C@H](Oc3ccc(Cn4cc(COCCOCCOCCOCCNC(=O)CCCC[C@@H]5SC[C@@H]6NC(=O)N[C@@H]65)nn4)cc3)[C@H](O)[C@@H]2O)[C@@H](O)[C@H]1O` [biotin-Ph-NDPr], for which the IC50 (usually the concentration at which inhibition is half-maximal) on CHIKV Mac [1] was 860 nM. Moreover, at SARS-CoV-2 Mac1 [2], binding was characterised by a dissociation constant (Kd) of 24 nM; the “fold more potent than biotin-ADPr based on Kd” value is roughly 1000 fold; the “kdis fold smaller than that of biotin-ADPr” value is on record as “more than 100 fold”; the kon – broadly, a measure of how fast the partners come together – was determined as 300000 ± 3000 M⁻¹ s⁻¹. For the same compound, on SARS-CoV-2 Mac1 [2], the koff is 0.0071 s⁻¹. For the same compound, inhibition on SARS-CoV-2 Mac1 [3] was half-maximal at 11 nM (IC50). Further, on MERS-CoV Mac1 [4], the 50% inhibitory concentration (IC50) was determined as 100 nM. Also, at CHIKV Mac [5], the kon was found to be 190000 ± 6000 M⁻¹ s⁻¹; the Kd – broadly, the concentration at which binding is half-saturated – came to 570 ± 20 nM; the koff was 0.11 ± 0.003 s⁻¹. Besides, at MERS-CoV Mac1 [6], the “fold decrease in Kd compared to biotin-ADPr” value (“fold decrease in Kd” below) is roughly 100 fold; the kon turned out to be 1.8e+06 ± 10000 M⁻¹ s⁻¹; the Kd is 17.2 nM and 17 nM; the koff came to 0.031 ± 0.0002 s⁻¹. For the same compound, on VEEV Mac [7], the “fold decrease in Kd” value is given as 400 fold, the on-rate constant (kon) amounted to 820000 ± 7000 M⁻¹ s⁻¹ and the koff was found to be 0.014 ± 6e-05 s⁻¹.
Consider `COC(=O)c1c(NC(=O)[C@@H]2CCC[C@@H](C(=O)O)C2)sc2c1CCCCCC2` [compound 27], for which the half-inhibitory concentration (IC50) at SARS-CoV-2 Mac1 [8] is 2100 nM.
As for `O=C(O)[C@H](Cc1c[nH]c2ccccc12)Nc1ncnc2[nH]ccc12` [compound 15c], the IC50 on SARS-CoV-2 Mac1 [9] is 6100 nM.
For `Nc1ncnc2c1ncn2C1OC(COP(=O)(O)OP(=O)(O)OCC2OC(Oc3ccc([N+](=O)[O-])cc3)C(O)C2O)C(O)C1O` (stereo not shown) [pNP-ADPr], on SARS-CoV-2 Mac1 [10], the IC50 was 370 nM and the “fold more potent than ADPr” value is greater than 20 fold.
With `CN(C)c1ccc2c(c1)Oc1cc(N(C)C)ccc1C21OC(=O)c2cc(C(=O)NCCCCCCNC(=O)CCc3cn([C@H]4O[C@H](COP(=O)(O)OP(=O)(O)OC[C@H]5O[C@@](C#N)(c6ccc7c(N)ncnn67)[C@H](O)[C@@H]5O)[C@@H](O)[C@H]4O)nn3)ccc21` [TAMRA-NDPr], the Kd at MERS-CoV Mac1 [11] was 130 nM; at SARS-CoV-2 Mac1 [12] (Kd), 15 nM; at CHIKV Mac [13] (Kd), 208 nM and 210 nM; on VEEV Mac [14] it was 39 nM. Further, the “fold more potent than TAMRA-ADPr” value at SARS-CoV-2 Mac1 [12] was “over 100 fold”. In addition, the “fold affinity improvement over TAMRA-ADPr” value at CHIKV Mac [13] is recorded as “more than 30 fold”.
As for `Nc1ncnc2c1ncn2[C@@H]1O[C@H](COP(=O)(O)OP(=O)(O)OC[C@H]2O[C@H](Oc3ccccc3)[C@H](O)[C@@H]2O)[C@@H](O)[C@H]1O` [Ph-ADPr], the IC50 against CHIKV Mac [1] was 126000 nM; at SARS-CoV-2 Mac1 [3], 1900 nM and 730 nM and 1500 nM; against MERS-CoV Mac1 [4], 1800 nM; at VEEV Mac [15], 7300 nM.
With `Nc1ncnc2c1ncn2[C@@H]1O[C@H](COP(=O)(O)OP(=O)(O)OC[C@H]2O[C@H](Oc3ccc(Cn4cc(COCCOCCOCCOCCNC(=O)CCCC[C@@H]5SC[C@@H]6NC(=O)N[C@@H]65)nn4)cc3)[C@H](O)[C@@H]2O)[C@@H](O)[C@H]1O` [biotin-Ph-ADPr], the half-maximal inhibitory concentration (IC50) at CHIKV Mac [1] was greater than 10000 nM; at SARS-CoV-2 Mac1 [3], 130 nM; on MERS-CoV Mac1 [4], 310 nM. For the same compound, the Kd is 420 ± 10 nM at SARS-CoV-2 Mac1 [2], 6200 ± 200 nM on CHIKV Mac [5] and 100 ± 4 nM at MERS-CoV Mac1 [6]. Also, the “fold more potent than biotin-ADPr based on Kd” value at SARS-CoV-2 Mac1 [2] is reported as roughly 50 fold. The on-rate constant (kon) on SARS-CoV-2 Mac1 [2] was 270000 ± 5000 M⁻¹ s⁻¹; on CHIKV Mac [5], 19000 ± 500 M⁻¹ s⁻¹; on MERS-CoV Mac1 [6], 1.1e+06 ± 30000 M⁻¹ s⁻¹; on VEEV Mac [7], 520000 ± 6000 M⁻¹ s⁻¹. Besides, the koff on SARS-CoV-2 Mac1 [2] worked out at 0.11 ± 0.002 s⁻¹; at CHIKV Mac [5], 0.12 ± 0.002 s⁻¹; at MERS-CoV Mac1 [6] it was 0.11 ± 0.003 s⁻¹; on VEEV Mac [7], 0.083 ± 0.0008 s⁻¹. In addition, the “fold decrease in Kd” value at MERS-CoV Mac1 [6] is given as 20 fold; on VEEV Mac [7], 30 fold.

These data come from article PMC11106745 (ACS Chemical Biology, 2024).
